In US9023874B2, “Fluorinated oxa or thia heteroarylalkylsulfide derivatives for combating invertebrate pests” (Merial, Inc., priority 2009, dated 2015):

Assays:
Assay type in all cases: in vivo
[1] = system: boll weevil (Anthonomus grandis); assay: Activity against boll weevil, insect diet with eggs in microtiter plates; settings: 120 h, test solution 2500 mg/L, sprayed onto diet, 5 days, read-out: mortality (egg and larval) in comparison with untreated controls
Protocol: The compounds were formulated in 75:25 (vohvol) water:DMSO.
For evaluating control of boll weevil (Anthonomus grandis) the test unit consisted of 24-well-microtiter plates containing an insect diet and 20-30 A. grandis eggs. Different concentrations of formulated compounds were sprayed onto the insect diet at 20 μI, using a custom built micro atomizer, at two replications. After application, the microtiter plates were incubated at 23±1° C. and 50±5% relative humidity for 5 days. Egg and larval mortality was then visually assessed.

[2] = system: brown planthopper (Nilaparvata lugens); assay: Activity against brown planthopper, sprayed rice seedlings; settings: spray, after 72 hours, read-out: mortality in comparison with untreated controls
Protocol: The active compounds were formulated as a 50:50 (vohvol) acetone:water solution. Surfactant (Alkamuls® EL 620 from Rhodia) was added at the rate of 0.1% (vol/vol).
Rice seedlings were cleaned and washed 24 h before spraying. Potted rice seedlings were sprayed with 5 ml test solution, air dried, placed in cages and inoculated with 10 adults. Treated rice plants were kept at 28-29° C. and relative humidity of 50-60%. Percent mortality was recorded after 72 hours.

[3] = system: vetch aphid (Megoura viciae); assay: Activity against vetch aphid, sprayed bean leaf disks in microtiter plates; settings: foliar, 144 h, test solution 2500 mg/L, leaf disk spray, 6 days, read-out: mortality in comparison with untreated controls
Protocol: The active compounds were formulated in 1:3 (vol:vol) DMSO:water with different concentrations of formulated compounds.
Bean leaf disks were placed into microtiterplates filled with 0.8% agar-agar and 2.5 ppm OPUST™. The leaf disks were sprayed with 2.5 μl of the test solution and 5 to 8 adult aphids were placed into the microtiterplates which were then closed and kept at 23±1° C. and 50±5% relative humidity under fluorescent light for 6 days. Mortality was assessed on the basis of vital, reproduced aphids. Aphid mortality and fecundity was then visually assessed.

[4] = system: cowpea aphid (Aphis craccivora); assay: Activity against cowpea aphid, sprayed potted cowpea plants; settings: spray, population reduction assessed after 24, 72 and 120 hours, read-out: mortality in comparison with untreated controls
Protocol: The active compounds were formulated in 50:50 (vohvol) acetone:water. The test solution was prepared at the day of use.
Potted cowpea plants colonized with 100-150 aphids of various stages were sprayed after the pest population had been recorded. Population reduction was assesed after 24, 72, and 120 hours.

[5] = system: Mediterranean fruitfly (Ceratitis capitata); assay: Activity against Mediterranean fruitfly, insect diet with eggs in microtiter plates; settings: 120 h, sprayed onto diet with eggs, 5 days, read-out: mortality (egg and larval)
Protocol: The active compounds were formulated in 1:3 (vohvol) DMSO:water.
For evaluating control of Mediterranean fruitfly the test unit consisted of microtiter plates containing an insect diet and 50 to 80 C. capitata eggs.
Different concentrations of formulated compounds were sprayed onto the insect diet at 5 μI, using a custom built micro atomizer, at two replications. After application, microtiter plates were incubated at 28±1° C. and 80±5% relative humidity for 5 days. Egg and larval mortality was then visually assessed.

[6] = system: Vanda/orchid thrips (Dichromothrips corbetti); assay: Activity against Vanda/orchid thrips, dipped orchid petals; settings: petal dip, after 72 hours, read-out: mortality in comparison with untreated controls
Protocol: The active compounds were formulated as a 50:50 (vohvol) acetone:water solution. Surfactant (Alkamuls® EL 620 from Rhodia) was added at the rate of 0.1% (vol/vol). Vanda orchids petals were cleaned, washed and air dried prior to dipping. Petals were dipped into the test solution for 3 seconds, air dried, placed inside a resealable plastic and inoculated with 20 adults. The treated petals were kept inside the holding room at 28-29° C. and relative humidity of 50-60%. Percent mortality was recorded after 72 hours.

[7] = system: silverleaf whitefly (Bemisia argentifolii, adult); assay: Activity against silverleaf whitefly adults, sprayed cotton plants; settings: 72 h, spray, 3 days after treatment, read-out: mortality in comparison with untreated controls
Protocol: The active compounds were formulated in cyclohexanone as a 10,0000 ppm solution supplied in 1.3 ml ABgene® tubes. These tubes were inserted into an automated electrostatic sprayer equipped with an atomizing nozzle and they served as stock solutions for which lower dilutions were made in 50% acetone:50% water (v/v). A nonionic surfactant (Kinetic®) was included in the solution at a volume of 0.01% (v/v).
Cotton plants at the cotyledon stage (one plant per pot) were sprayed by an automated electrostatic plant sprayer equipped with an atomizing spray nozzle. The plants were dried in the sprayer fume hood and then removed from the sprayer. Each pot was placed into a plastic cup and 10 to 12 whitefly adults (approximately 3-5 days old) were introduced. The insects were collected using an aspirator and 0.6 cm, nontoxic Tygon® tubing (R-3603) connected to a barrier pipette tip. The tip, containing the collected insects, was then gently inserted into the soil containing the treated plant, allowing insects to crawl out of the tip to reach the foliage for feeding. Cups were covered with a reusable screened lid (150-micron mesh polyester screen PeCap from Tetko, Inc.). […] Mortality was assessed 3 days after treatment, compared to untreated control plants.

[8] = system: diamondback moth (Plutella xylostella); assay: Activity against diamondback moth, dipped cabbage leaf disk; settings: foliar, test solution 500 ppm, leaf dip, third instar larvae, after 72 h, read-out: mortality in comparison with untreated controls
Protocol: The active compounds were formulated in 50:50 acetone:water and 0.1% (vol/vol) Alkamuls® EL 620 surfactant. A 6 cm leaf disk of cabbage leaves was dipped in the test solution for 3 seconds and allowed to air dry in a Petri plate lined with moist filter paper. The leaf disk was inoculated with 10 third instar larvae and kept at 25-27° C. and 50-60% humidity for 3 days. Mortality was assessed after 72 h of treatment.

SMILES	mortality at 2500 µg/mL [1] [%]	mortality at 500 ppm [2] [%]	mortality at 2500 µg/mL [3] [%]	mortality at 500 ppm [4] [%]	mortality at 2500 ppm [5] [%]	mortality at 500 ppm [6] [%]	mortality at 500 ppm [7] [%]	mortality at 500 ppm [8] [%]
CC(Cl)(c1nnc(C(F)(F)F)s1)[S+]([O-])CCSC(F)(F)F (centres unmarked) [11-8, 2-{1-Chloro-1-[2-(trifluoromethylthio)ethylsulfinyl]ethyl}-5-(trifluoromethyl)-1,3,4-thiadiazole]	100	≥ 75						
CC(c1nnc(C(F)(F)F)s1)S(=O)(=O)CCSC(F)(F)F (centres unmarked) [11-2, 2-(Trifluoromethyl)-5-{1-[2-(trifluoromethylthio)ethylsulfonyl]-ethyl}-1,3,4-thiadiazole]	100		100	≥ 75	≥ 50	≥ 75	≥ 75	
CC(c1nnc(C(F)(F)F)s1)[S+]([O-])CCSC(F)(F)F (centres unmarked) [11-3, 2-(Trifluoromethyl)-5-{1-[2-(trifluoromethylthio)ethylsulfinyl]ethyl}-1,3,4-thiadiazole]	100	≥ 75	100	≥ 75		≥ 75		≥ 75
CC(C#N)(SCCSC(F)(F)F)c1nnc(C(F)(F)F)s1 (centres unmarked) [11-9, 2-(5-(trifluoromethyl)-1,3,4-thiadiazol-2-yl)-2-(2-(trifluoromethylthio)ethylthio)propanenitrile]					≥ 50			
CC(SCCSC(F)(F)F)c1nnc(C(F)(F)F)s1 (centres unmarked) [11-1, 2-(Trifluoromethyl)-5-{1-[2-(trifluoromethylthio)ethylthio]ethyl}-1,3,4-thiadiazole]	100		100					
